From ChEMBL document CHEMBL1139930, “Solvatochromism, DNA binding, antitumor activity and molecular modeling study of mixed-ligand copper(II) complexes containing the bulky ligand: bis[N-(p-tolyl)imino]acenaphthene” (Eur J Med Chem, 2007)
≈ marks a conversion by molar mass, not a printed value.

Tests used:
[1] = Displacement of methyl green from DNA; parameters: species or system Homo sapiens
[2] = system: Ehrlich; test: Antitumor activity against Ehrlich ascites carcinoma cells in mouse assessed as haemoglobin level at 20 mg/kg after 14 days; type: functional
[3] = system: Ehrlich; test: Antitumor activity against Ehrlich ascites carcinoma cells in mouse assessed as RBC count at 20 mg/kg after 14 days; type: functional
[4] = system: Ehrlich; test: Antitumor activity against Ehrlich ascites carcinoma cells in mouse assessed as WBC count at 20 mg/kg after 14 days; type: functional
[5] = system: Ehrlich; test: Antitumor activity against Ehrlich ascites carcinoma cells in mouse assessed as increase in life span at 20 mg/kg relative to control; type: functional
[6] = system: Ehrlich; test: Antitumor activity against Ehrlich ascites carcinoma cells in mouse assessed as cell viability at 20 mg/kg after 5 days; type: functional

`COc1cccc2c1C(=O)c1c(O)c3c(c(O)c1C2=O)C[C@@](O)(C(C)=O)C[C@@H]3O[C@H]1C[C@H](N)[C@H](O)[C@H](C)O1` [DAUNORUBICIN] gave an IC50 [1] of 28 µg/mL (≈ 53.1 µM).
For `O=c1[nH]cc(F)c(=O)[nH]1` [FLUOROURACIL], the Activity [2] was 15.6%, the Activity [3] was 5.87 /10^6mm3 and the Activity [4] was 14.7 /10^3mm3. For the same compound, the Activity [5] was 42.8% and the Activity [6] was 83.6 10^6/100microL.
